Measurements published in patent US8785655B2, “Ionic liquid solvents” (Dublin City University, priority 2009, dated 2014).

What was measured:
[1] = tested on: Candida krusei ATCC 6258; assay: In vitro antifungal activity, MIC by microdilution (NCCLS M27-A)
[2] = tested on: Klebsiella pneumoniae D 11750/08; assay: Screen against bacteria, MIC/IC80; format: cell-based; details: KP
[3] = tested on: Candida krusei E28; assay: In vitro antifungal activity, MIC by microdilution (NCCLS M27-A)
[4] = tested on: Candida albicans ATCC 44859; assay: as above
Procedure: (§1) In vitro antifungal activities of the compounds were evaluated on the collection of fungal strains deposited at the Department of Biological and Medical Sciences, Faculty of Pharmacy, Charles University, Czech Republic. All the isolates were maintained on Sabouraud dextrose agar prior to being tested.
(§2) Minimum inhibitory concentrations (MICs) were determined by the microdilution format of the NCCLS M27-A guidelines. […] RPMI 1640 (Sevapharma, Prague) medium supplemented with L-glutamine and buffered with 0.165 M morpholinepropanesulfonic acid to pH 7.0 was used as the test medium. The wells of the microdilution tray contained 100 μl of the RPMI 1640 medium with 2-fold serial dilutions of the compounds (1000 to 0.24 μmol/l for the new compounds) and 100 μl of inoculum suspension. Fungal inoculum in RPMI 1640 was prepared to give a final concentration of 5×103±0.2 cfu·ml-1. The trays were incubated at 35° C. and MICs were read visually for filamentous fungi and photometrically for yeasts as an optical density (OD) at 540 nm after 24 h and 48 h. The MICs were defined as 80% inhibition of the growth of control. MICs were determined twice and in duplicate. The deviations from the usually obtained were no higher than the nearest concentration value up and down the dilution scale.

[5] = tested on: Candida albicans ATCC 90028; assay: as above
[6] = tested on: Staphylococcus aureus CCM 4516/08; assay: Screen against bacteria, MIC/IC80; format: cell-based; details: SA
[7] = tested on: Enterococcus sp. J 14365/08; assay: Screen against bacteria, MIC/IC80; format: cell-based; details: EF
[8] = tested on: Aspergillus fumigatus 231; assay: In vitro antifungal activity, MIC by microdilution (NCCLS M27-A); details: AF
[9] = tested on: Candida tropicalis 156; assay: as above; details: CT
[10] = tested on: Klebsiella pneumoniae J 14368/08 ESBL-positive; assay: Screen against bacteria, MIC/IC80; format: cell-based; details: KP-E
[11] = tested on: Candida lusitaniae 2446/l; assay: In vitro antifungal activity, MIC by microdilution (NCCLS M27-A); details: CL
Procedure: as §1, §2

[12] = tested on: Candida glabrata 20/l; assay: as above; details: CG
Procedure: as §1, §2

[13] = tested on: Escherichia coli CCM4517; assay: Screen against bacteria, MIC/IC80; format: cell-based; details: EC
[14] = tested on: Staphylococcus epidermidis H 6966/08; assay: Screen against bacteria, MIC/IC80; format: cell-based; details: SE
[15] = tested on: Trichophyton mentagrophytes 445; assay: In vitro antifungal activity, MIC by microdilution (NCCLS M27-A); details: TM
Procedure: as §1, §2

[16] = tested on: Pseudomonas aeruginosa CCM 1961; assay: Screen against bacteria, MIC/IC80; format: cell-based; details: PA
[17] = tested on: Absidia corymbifera 272; assay: In vitro antifungal activity, MIC by microdilution (NCCLS M27-A); details: AC
[18] = tested on: Candida parapsilosis ATCC 22019; assay: as above; details: CP
[19] = tested on: Staphylococcus aureus H 5996/08 Methiciline-resistant; assay: Screen against bacteria, MIC/IC80; format: cell-based; details: MRSA

| Compound | MIC/IC80 ([1]; CK1, 24 h) [mM] | MIC/IC80 ([1]; CK1, 48 h) [mM] | MIC/IC80 ([2]; 24 h) [mM] | MIC/IC80 ([2]; 48 h) [mM] | MIC/IC80 ([3]; CK2, 24 h) [mM] | MIC/IC80 ([3]; CK2, 48 h) [mM] | MIC/IC80 ([4]; CA1, 24 h) [mM] | MIC/IC80 ([4]; CA1, 48 h) [mM] | MIC/IC80 ([5]; CA2, 24 h) [mM] | MIC/IC80 ([5]; CA2, 48 h) [mM] | MIC/IC80 ([6]; 24 h) [mM] | MIC/IC80 ([6]; 48 h) [mM] | MIC/IC80 ([7]; 24 h) [mM] | MIC/IC80 ([7]; 48 h) [mM] | MIC/IC80 ([8]; 24 h) [mM] | MIC/IC80 ([8]; 48 h) [mM] | MIC/IC80 ([9]; 24 h) [mM] | MIC/IC80 ([9]; 48 h) [mM] | MIC/IC80 ([10]; 24 h) [mM] | MIC/IC80 ([10]; 48 h) [mM] | also measured |
| --- | --- | --- | --- | --- | --- | --- | --- | --- | --- | --- | --- | --- | --- | --- | --- | --- | --- | --- | --- | --- | --- |
| CCCCCOC(=O)C(OC(=O)Cn1cc[n+](C)c1)c1ccccc1.[Br-] (stereo not drawn) [KG816, RS-3-methyl-1-[1-(pentoxycarbonyl)-1-phenylmethoxycarbonylmethyl]imidazolium bromide] | 1 | 1 | >1 | >1 | 1 | >1 | 0.5 | 1 | 1 | >1 | 1 | 1 | >1 | >1 | 1 | 1 | 1 | >1 | >1 | >1 | MIC/IC80 ([11]; 24 h): >1 mM; MIC/IC80 ([11]; 48 h): >1 mM; MIC/IC80 ([12]; 24 h): 1 mM; MIC/IC80 ([12]; 48 h): 1 mM; MIC/IC80 ([13]; 24 h): >1 mM; MIC/IC80 ([13]; 48 h): >1 mM; MIC/IC80 ([14]; 24 h): >1 mM; MIC/IC80 ([14]; 48 h): >1 mM; MIC/IC80 ([15]; 72 h): 0.5 mM; MIC/IC80 ([15]; 120 h): 0.5 mM; MIC/IC80 ([16]; 24 h): >1 mM; MIC/IC80 ([16]; 48 h): >1 mM; MIC/IC80 ([17]; 24 h): 1 mM; MIC/IC80 ([17]; 48 h): 1 mM; MIC/IC80 ([18]; 24 h): >1 mM; MIC/IC80 ([18]; 48 h): >1 mM; MIC/IC80 ([19]; 24 h): >1 mM; MIC/IC80 ([19]; 48 h): >1 mM |
| R-3-methyl-1-[1-(ethoxyethoxycarbonyl)-1-phenylmethoxycarbonylmethyl]imidazolium octyl sulphate [KG301] | >1 | >1 | >1 | >1 | >1 | >1 | >1 | >1 | >1 | >1 | >1 | >1 | >1 | >1 | >1 | >1 | >1 | >1 | >1 | >1 | MIC/IC80 ([11]; 24 h): >1 mM; MIC/IC80 ([11]; 48 h): >1 mM; MIC/IC80 ([12]; 24 h): >1 mM; MIC/IC80 ([12]; 48 h): >1 mM; MIC/IC80 ([13]; 24 h): >1 mM; MIC/IC80 ([13]; 48 h): >1 mM; MIC/IC80 ([14]; 24 h): >1 mM; MIC/IC80 ([14]; 48 h): >1 mM; MIC/IC80 ([15]; 72 h): >1 mM; MIC/IC80 ([15]; 120 h): >1 mM; MIC/IC80 ([16]; 24 h): >1 mM; MIC/IC80 ([16]; 48 h): >1 mM; MIC/IC80 ([17]; 24 h): >1 mM; MIC/IC80 ([17]; 48 h): >1 mM; MIC/IC80 ([18]; 24 h): >1 mM; MIC/IC80 ([18]; 48 h): >1 mM; MIC/IC80 ([19]; 24 h): >1 mM; MIC/IC80 ([19]; 48 h): >1 mM |
| CCCCCCCCOS(=O)(=O)[O-].CCOCCOC(=O)C(C)OC(=O)Cn1cc[n+](C)c1 (stereo not drawn) [KG172, RS-3-methyl-1-[1-(ethoxyethoxycarbonyl)-1-methylmethoxycarbonylmethyl]imidazolium octyl sulphate] | >1 | >1 | >1 | >1 | >1 | >1 | >1 | >1 | >1 | >1 | >1 | >1 | >1 | >1 | >1 | >1 | >1 | >1 | >1 | >1 | MIC/IC80 ([11]; 24 h): >1 mM; MIC/IC80 ([11]; 48 h): >1 mM; MIC/IC80 ([12]; 24 h): >1 mM; MIC/IC80 ([12]; 48 h): >1 mM; MIC/IC80 ([13]; 24 h): >1 mM; MIC/IC80 ([13]; 48 h): >1 mM; MIC/IC80 ([14]; 24 h): >1 mM; MIC/IC80 ([14]; 48 h): >1 mM; MIC/IC80 ([15]; 72 h): >1 mM; MIC/IC80 ([15]; 120 h): >1 mM; MIC/IC80 ([16]; 24 h): >1 mM; MIC/IC80 ([16]; 48 h): >1 mM; MIC/IC80 ([17]; 24 h): >1 mM; MIC/IC80 ([17]; 48 h): >1 mM; MIC/IC80 ([18]; 24 h): >1 mM; MIC/IC80 ([18]; 48 h): >1 mM; MIC/IC80 ([19]; 24 h): >1 mM; MIC/IC80 ([19]; 48 h): >1 mM |
